The values below come from patent US20240165276A1, “SELECTIVE LIGANDS FOR TAU AGGREGATES” (KARIN & STEN MORTSTEDT CBD SOLUTIONS AB, priority 2019, published 2024).

Like-named read-outs stand apart in the source and are kept apart here.

Data set [1] has as its target recombinant 0N4R Tau fibrils (Homo sapiens (Human), UniProt P10636). In words: ^3H-THK5117 competition binding to tau fibrils in vitro. As to conditions: for IC50: competition with 3 nM [^3H]-THK5117, 0N4R tau fibrils, 1 h, 22° C., average if run more than once. Here is the method: (§1) ^3H-THK5117 Competition Binding to Tau Fibrils In Vitro
(§2) Preparation of recombinant 0N4R Tau fibrils was performed as previously described in Morozova, O. A., Biochemistry (2013), Vol., 52(40), pages 6960-6967. Competition binding experiments to 0N4R Tau fibrils were performed by incubating increasing concentrations [10^−10-10^−6 M] of the Example compounds of the invention, or the known tau specific ligand PBB3 (PBB3 was synthesized as previously described in M. Maruyama, et al, Neuron 2013, 79, 1094-1108) or MK6240 (Novandi Chemistry AB), in the presence of 3 nM of the known tau ligand [^3H]-THK5117 (Novandi Chemistry) and 0.2 mM 0N4R tau fibrils in binding buffer (50 mM Tris-HCl, pH 7.4, 0.1% BSA) for 1 h in the dark, and at 22° C. The incubation was terminated by filtration through a Whatman GF/B glass filter (Whatman International, Kent, UK) using a Brandel cell harvester. The filter was then washed rapidly four times with 3 mL of ice-cold wash buffer (5 mM Tris-HCl, 0.25 mM NaCl, 5% EtOH), and equilibrated for 1 h in scintillation vials containing 5 mL of Ultima Gold scintillation fluid before being analysed using a Liquid Scintillation Analyzer.
(§3) The results are shown in Table 2 in the column labeled “Tau IC50”.
(§4) Relative Selectivity for Tau vs. Aβ
(§5) Relative selectivity for tau compared to Aβ for the exemplified compounds was calculated using the results for the [^3H]-THK5117 tau and [^3H]-AZD2184 Aβ assays described above. The calculated results are shown in Table 2 in the column labeled “Selectivity for tau relative to Aβ”.

For data set [2], the system named is recombinant 0N4R Tau fibrils. The data set is described as above. As to conditions: calculated from [^3H]-THK5117 tau and [^3H]-AZD2184 Aβ assay results. The protocol:
as §1, §2, §3, §4, §5

In another data set the target is Aβ(1-42) amyloid fibrils (Homo sapiens, UniProt P05067). In words: ^3H-AZD2184 competition binding to Aβ(1-42) fibrils in vitro. As to conditions: competition with [^3H]-AZD2184, Aβ(1-42) amyloid fibrils; average if run more than once. The protocol: ^3H-AZD2184 Competition Binding to Aβ(1-42) Fibrils In Vitro
Competition binding experiments to Aβ(1-42) amyloid fibrils were performed as previously described in Jureus, A., et al, Journal of Neurochemistry (2010), Vol. 114, pages 784-794 for the Example compounds of the invention indicated in Table 2, or the known tau specific ligand PBB3 (PBB3 was synthesized as previously described in M. Maruyama, et al, Neuron 2013, 79, 1094-1108).
The results are shown in Table 2 in the column labeled “Aβ IC50”.

The conditions of data set [3]: cited from earlier work.

recombinant 0N4R Tau fibrils (Homo sapiens (Human), UniProt P10636), sequence (P10636 other isoform, or with tags, fused parts or gaps): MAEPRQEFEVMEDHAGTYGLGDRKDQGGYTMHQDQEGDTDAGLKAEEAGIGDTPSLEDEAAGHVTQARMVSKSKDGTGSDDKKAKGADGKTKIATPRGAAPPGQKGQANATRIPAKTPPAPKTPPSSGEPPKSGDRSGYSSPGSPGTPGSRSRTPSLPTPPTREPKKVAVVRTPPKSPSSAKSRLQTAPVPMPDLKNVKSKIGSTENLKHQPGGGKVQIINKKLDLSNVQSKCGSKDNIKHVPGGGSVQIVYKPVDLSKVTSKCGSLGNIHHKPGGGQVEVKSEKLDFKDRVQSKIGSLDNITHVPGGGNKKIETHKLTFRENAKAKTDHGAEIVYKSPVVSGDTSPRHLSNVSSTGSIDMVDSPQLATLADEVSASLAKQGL
Aβ(1-42) amyloid fibrils, sequence (P05067 672-713 limits assumed): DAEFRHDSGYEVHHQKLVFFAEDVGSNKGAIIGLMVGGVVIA

For `OCCC1CN(c2ccc(-c3cc4cc(O)ccc4[nH]3)c(F)n2)C1` [Compound 5], the values for the IC50 (in data set [1]; at Aβ(1-42) amyloid fibrils) were 7 nM and 11 nM, respectively. The “Selectivity for tau relative to Aβ” value in data set [2] is given as 1.6.
In the case of `COc1ccc2nc(-c3ccc(N4CC[C@@H](CO)[C@@H](O)C4)nc3)sc2c1` [Compound 24], the IC50 in data set [1] is 9 nM.
Regarding `Oc1ccc2[nH]c(-c3cnc(N4CCC[C@@H](O)C4)nc3)cc2c1` [Compound 30, 2-{2-[(3R)-3-Hydroxypiperidin-1-yl]pyrimidin-5-yl}-1H-indol-5-ol], the half-inhibitory concentration (IC50) in data set [1] was 150 nM; on Aβ(1-42) amyloid fibrils, 90 nM. The “Selectivity for tau relative to Aβ” value in data set [2] is on record as 0.6.
Consider `Oc1ccc2[nH]c(-c3ccc(N4CCC[C@@H](O)C4)nc3)cc2c1` [Compound 27, 2-{6-[(3R)-3-Hydroxypiperidin-1-yl]pyridin-3-yl}-1H-indol-5-ol], for which the IC50 was 25 nM in data set [1] and 32 nM at Aβ(1-42) amyloid fibrils. Moreover, the “Selectivity for tau relative to Aβ” value in data set [2] is given as 1.3.
The like results for `OCC1(O)CCN(c2ccc(-c3cc4cc(O)ccc4[nH]3)c(F)n2)CC1` [Compound 21, 2-{2-Fluoro-6-[4-hydroxy-4-(hydroxymethyl)piperidin-1-yl]pyridin-3-yl}-1H-indol-5-ol] were, in that order, 40 nM, 9 nM and 0.2.
`COc1ccc2nc(-c3ccc(N4CCC(O)(CO)CC4)nc3)sc2c1` [Compound 14, 4-(Hydroxymethyl)-1-[5-(6-methoxy-1,3-benzothiazol-2-yl)pyridin-2-yl]piperidin-4-ol]: the IC50 in data set [1] was 9 nM; at Aβ(1-42) amyloid fibrils it was 65 nM. Moreover, in data set [2], the “Selectivity for tau relative to Aβ” value is recorded as 7.2.
On to `COc1ccc2nc(-c3ccc(N4CC[C@@H](O)[C@@H](O)C4)nc3)sc2c1` [Compound 23, (3S,4R)-1-[5-(6-Methoxy-1,3-benzothiazol-2-yl)pyridin-2-yl]piperidine-3,4-diol], for which the IC50 in data set [1] came to 6 nM.
For the compound `O[C@@H]1CCCN(c2ccc(-c3cc4cc(OCCOCCOCCF)ccc4[nH]3)cn2)C1` [Compound 29, (3R)-1-[5-(5-{2-[2-(2-Fluoroethoxy)ethoxy]ethoxy}-1H-indol-2-yl)pyridin-2-yl]piperidin-3-ol], the 50% inhibitory concentration (IC50) in data set [1] is 14 nM; at Aβ(1-42) amyloid fibrils, 80 nM. The “Selectivity for tau relative to Aβ” value in data set [2] is given as 5.7.
For `OCC1CN(c2ccc(-c3cc4cc(O)ccc4[nH]3)c(F)n2)C1` [Compound 4] the same measures were 38 nM, 47 nM and 1.2.
For `COc1ccc2nc(-c3ccc(N4CCCC(O)C4)nc3)sc2c1` (stereo not shown) [Compound 1, 1-[5-(6-Methoxy-1,3-benzothiazol-2-yl)pyridin-2-yl]piperidin-3-ol], the IC50 in data set [1] was 4 nM; on Aβ(1-42) amyloid fibrils, 8 nM. In data set [2], the “Selectivity for tau relative to Aβ” value is on record as 2.
Consider `CNc1ccc(/C=C/C=C/c2nc3ccc(O)cc3s2)cn1` [^11C-PBB3], for which the “radiochemical purity after exposure to fluorescent light” value in data set [3] (1 min after exposure to fluorescent light) is 77%; in data set [3] (from 10 to 60 min after exposure to fluorescent light), “approximately 50%”.
For the compound `COC(=O)C1CN(c2ccc(-c3cc4cc(O)ccc4[nH]3)c(F)n2)C1` [Compound 33, Methyl 1-[6-Fluoro-5-(5-hydroxy-1H-indol-2-yl)pyridin-2-yl]azetidine-3-carboxylate], in data set [1], the concentration for half-maximal inhibition (IC50) was 6 nM.
In the case of `COc1ccc2nc(-c3ccc(N4C[C@H](O)C[C@@H](O)C4)nc3)sc2c1` [Compound 25, (3R,5R)-1-[5-(6-Methoxy-1,3-benzothiazol-2-yl)pyridin-2-yl]piperidine-3,5-diol], in data set [1], the half-inhibitory concentration (IC50) came to 62 nM.
For `CNc1ccc(/C=C/C=C/c2nc3ccc(O)cc3s2)cn1` [PBB3, reference compound], the IC50 in data set [1] was found to be 7 nM; on Aβ(1-42) amyloid fibrils it was 28 nM. Besides, the “Selectivity for tau relative to Aβ” value in data set [2] is recorded as 4.
For the compound `O[C@@H]1CCCN(c2ccc(-c3cc4cc(OCCF)ccc4[nH]3)cn2)C1` [Compound 28, (3R)-1-{5-[5-(2-Fluoroethoxy)-1H-indol-2-yl]pyridin-2-yl}piperidin-3-ol], the IC50 in data set [1] was 4 nM; at Aβ(1-42) amyloid fibrils, 8 nM. In addition, the “Selectivity for tau relative to Aβ” value in data set [2] is on record as 2.
For the compound `COc1ccc2nc(-c3ccc(N4CC[C@@H](O)[C@H](O)C4)nc3)sc2c1` [Compound 8, (3R,4R)-1-[5-(6-Methoxy-1,3-benzothiazol-2-yl)pyridin-2-yl]piperidine-3,4-diol], in data set [1], the half-inhibitory concentration (IC50) came to 16 nM.
As to `COc1ccc2nc(-c3ccc(N4CC[C@@H](O)C4)nc3)sc2c1` [Compound 2, (3R)-1-[5-(6-Methoxy-1,3-benzothiazol-2-yl)pyridin-2-yl]pyrrolidin-3-ol], the IC50 in data set [1] was found to be 18 nM; at Aβ(1-42) amyloid fibrils it was 22 nM. Besides, in data set [2], the “Selectivity for tau relative to Aβ” value was 1.2.
Turning to `O[C@@H]1CCCN(c2ncc(-c3cc4cc(OCCF)ccc4[nH]3)cn2)C1` [Compound 31, (3R)-1-{5-[5-(2-Fluoroethoxy)-1H-indol-2-yl]pyrimidin-2-yl}piperidin-3-ol], the half-maximal inhibitory concentration (IC50) in data set [1] is 10 nM; on Aβ(1-42) amyloid fibrils, 12 nM. For the same compound, in data set [2], the “Selectivity for tau relative to Aβ” value was 1.2.
In the case of `OC[C@@H]1CCN(c2ccc(-c3cc4cc(O)ccc4[nH]3)c(F)n2)C[C@H]1O` [Compound 18, 2-{2-Fluoro-6-[(3S,4S)-3-hydroxy-4-(hydroxymethyl)piperidin-1-yl]pyridin-3-yl}-1H-indol-5-ol], in data set [1], the half-maximal inhibitory concentration (IC50) amounted to 29 nM.
For `O[C@@H]1CCCN(c2ncc(-c3cc4cc(OCCOCCOCCF)ccc4[nH]3)cn2)C1` [Compound 32, (3R)-1-[5-(5-{2-[2-(2-Fluoroethoxy)ethoxy]ethoxy}-1H-indol-2-yl)pyrimidin-2-yl]piperidin-3-ol], the IC50 in data set [1] turned out to be 89 nM; at Aβ(1-42) amyloid fibrils, 25 nM. Further, the “Selectivity for tau relative to Aβ” value in data set [2] is on record as 0.3.
As to `COc1ccc2nc(-c3ccc(N4CC[C@@H](CO)[C@H](O)C4)nc3)sc2c1` [Compound 11, (3S,4S)-4-(Hydroxymethyl)-1-[5-(6-methoxy-1,3-benzothiazol-2-yl)pyridin-2-yl]piperidin-3-ol], the 50% inhibitory concentration (IC50) in data set [1] is 11 nM.
Take `OCC1CCN(c2ccc(-c3cc4ccc(O)cc4[nH]3)c(F)n2)CC1` [Compound 22, 2-{2-Fluoro-6-[4-(hydroxymethyl)piperidin-1-yl]pyridin-3-yl}-1H-indol-6-ol]: the IC50 (in data set [1]; on Aβ(1-42) amyloid fibrils) was 3 nM in each case. In data set [2], the “Selectivity for tau relative to Aβ” value is listed as 1.
For `Oc1ccc2[nH]c(-c3ccc(N4CCC[C@@H](O)C4)nc3F)cc2c1` [Compound 6, 2-{2-Fluoro-6-[(3R)-3-hydroxypiperidin-1-yl]pyridin-3-yl}-1H-indol-5-ol], the IC50 in data set [1] was found to be 1 nM; on Aβ(1-42) amyloid fibrils, 37 nM. The “Selectivity for tau relative to Aβ” value in data set [2] is 37.
With `Nc1c(F)ccc2cnc(-n3ccc4ccncc43)cc12` [MK-6420, reference compound], the 50% inhibitory concentration (IC50) in data set [1] is more than 1000 nM. Moreover, the “binding in the recombinant 4R tau fibrils assay (in words)” value in data set [1] (recombinant 4R tau fibrils, [^3H]-THK5117 competition) is “inactive”.
With `COc1ccc2nc(-c3ccc(N4CC[C@H](O)C4)nc3)sc2c1` [Compound 3, (3S)-1-[5-(6-Methoxy-1,3-benzothiazol-2-yl)pyridin-2-yl]pyrrolidin-3-ol], the IC50 (in data set [1]; on Aβ(1-42) amyloid fibrils) was 11 nM in each case. In addition, in data set [2], the “Selectivity for tau relative to Aβ” value is recorded as 1.
Regarding `Oc1ccc2[nH]c(-c3ccc(N4CCC[C@H](O)C4)nc3F)cc2c1` [Compound 7, 2-{2-Fluoro-6-[(3S)-3-hydroxypiperidin-1-yl]pyridin-3-yl}-1H-indol-5-ol], the IC50 amounted to 9 nM in data set [1] and 80 nM at Aβ(1-42) amyloid fibrils. The “Selectivity for tau relative to Aβ” value in data set [2] is given as 8.9.
With `COc1ccc2nc(-c3ccc(N4C[C@H](O)C[C@H](O)C4)nc3)sc2c1` [Compound 12, (3R,5S)-1-[5-(6-Methoxy-1,3-benzothiazol-2-yl)pyridin-2-yl]piperidine-3,5-diol], the IC50 in data set [1] was determined as 40 nM.
On to `OC[C@@H]1CCN(c2ccc(-c3cc4cc(O)ccc4[nH]3)c(F)n2)C[C@@H]1O` [Compound 26], for which the IC50 in data set [1] is 48 nM.

The IC50 is the concentration needed to halve the response being measured.
